Laboratory results as given in US6599499B1, “Uses of diterpenoid triepoxides as an anti-proliferative agent” (priority 1999, dated 2003).

What was measured:
Dx5 cells = experiment: Internucleosomal DNA laddering in Dx5 cells; type: cell-based, human
Description: (§1) Cell death reagents and assays. Cell viability was measured by an MTT assay as recently described (Lee et al. (1999) J. Biol. Chem. 274:13451-13455. z-VAD-fluoromethylketone (z-VAD.fmk) was obtained from Alexis Biochemicals, San Diego, Calif. The effect of z-VAD.fmk on cell viability was analyzed by annexin and propidium iodide staining followed by FACS analysis according to the manufacturer's protocol (Clontech Laboratories, Palo Alto, Calif.). The analysis of apoptosis in histologic sections was done by terminal deoxynucleotidyl transferase (TdT)-mediated d-UTP nick end labeling (TUNEL) of slides from paraffin sections of day 3 tumors harvested from the mice 24 h after the second of two daily treatments with PG490-88 or saline. TUNEL staining was done according to the manufacturer's protocol (Boehringer Mannheim, Indianapolis, Ind.) and then the histology slides were counterstained with methyl green. DNA was isolated from cells for analysis of internucleosomal DNA laddering followed by agarose gel electrophoresis and ethidium bromide staining.
In FIG. 1A, ZR-75 (breast cancer), H23 (non-small cell lung cancer) and Dx5 (MDR uterine sarcoma) cell lines were treated with PG490 at dosages shown and harvested 48 h later for analysis of cell viability by an MTT assay. […]

p21 = p21 protein level by immunoblot in MCF-7 cells; type: cell-based, human; settings: triptolide-treated MCF-7 cells
Description: Immunoblotting. At 8 hours after triptolide and/or doxorubicin treatment cells were harvested at the times indicated and lysed using HNET buffer (50 mM HEPES pH 7.5, 100 mM NaCl, 1 mM EGTA, and 1% Triton X-100) supplemented with 1 mM DTT, 1 mM PMSF and protease inhibitors cocktail (Boehringer Mannheim, Germany). 35 μg of protein was loaded on 10% SDS-PAGE followed by transferring to PVDF membrane. Immunoblotting was performed as previously described using a p53 mouse monoclonal antibody from Oncogene Research Products (Lee et al. (1999) J Biol Chem 274:13451-5).
Immunoblot analysis using other antibodies was performed as described above. The band intensity was measured by NIH Image 1.62.

p53 mRNA = p53 mRNA by Northern blot in HT1080 cells; type: cell-based, human
Description: Northern Blot Analysis. RNA was prepared from HT1080 cells using RNeasy Mini Kit from Qiagen Inc. (Valencia, Calif.). cDNAs for Northern blot analysis for p21 and p53 were prepared using RT-PCR with […] of total RNA. The following primer pairs were used: p53, (SEQ ID NO:11) 5′-[…]-3′ and (SEQ ID NO:12) 5′-[…]-3′; p21, (SEQ ID NO:13) 5′-[…]-3′ and (SEQ ID NO:14) 5′-[…]-3′; and glyceraldehyde-3-phosphate dehydrogenase, (SEQ ID NO:15) 5′-[…]-3′ and 5′-(SEQ ID NO:16) […]-3′.

H23 human tumor cells = system: H23 human tumor cells
Description: as §1
Nude mouse xenograft model. Female NCr nude mice were purchased from Taconic, Germantown, N.Y., and were generally 20-24 grams when used. Mice were kept in autoclaved filter-top microisolator cages with autoclaved water and sterile food ad lib. The cages were maintained in an isolator unit providing filtered air (Lab Products, Inc., Maywood, N.J.). Tumor cells were grown and harvested as described above. NCr nude mice were injected intradermally with 5×10^6 tumor cells. In some experiments, treatment was initiated on the day of tumor cell implantation. […] Mice were treated IP daily for 5 days per week.
H23 tumor cells were implanted intradermally in nude mice. When the tumors reached approximately 100 mm^3, daily IP treatment with PG490-88 was initiated. […] The data in FIG. 3 represents the measurement of H23 tumor volume on day 14 after the initiation of treatment. Nude mice bearing xenografts of H23 human tumor cells were treated daily as shown. The data represent the means and the standard errors of the means of the tumor volumes as percent of the day 0 tumor volumes for each animal measured day 3, 6, 10 and 14 days after the initiation of treatment. There were 5 mice per group.

[1] = system: HT-29 human colon cancer cell line tumors; experiment: Nude mouse xenograft, established HT-29 colon cancer tumors; type: in vivo, nude mice
Description: HT-29 tumor cells grown in tissue culture were harvested and implanted intradermally on the backs of nude mice. Tumor size was monitored by measuring the dimensions of each tumor and calculating tumor volume with a formula. […] PG490-88 treatment at 0.25 mg/kg was administered daily i.p. 5 days per week for 2 weeks. Navelbine at 10 mg/kg was given i.v. on days 0 and 7. Mice in the combination treatment group received PG490-88 i.p. and Navelbine i.v. at the appropriate times. The treatments were given to mice at 100 μl per 10 g of mouse body weight. Tumor dimensions were measured periodically for calculation of tumor volumes. […] The data are presented as mean percent change in tumor volume from day 0 for each treatment group. Toxicity of the treatment was monitored by weighing the mice daily 5 days per week. In FIG. 8, a comparison is provided for tumor volumes on Days 0 and 14. Tumor dimensions were measured periodically for calculation of tumor volumes, and the final determinations were made on day 14.

[2] = Observable toxicity in treated mice (body weight, activity, respiration); type: in vivo
Description: PG490-88 (0.75 mg/kg) as measured by a change in body weight, altered activity or labored respiration.

Compound | DNA laddering, time it began (Dx5 cells) [h] | DNA laddering, time of maximum (Dx5 cells) [h] | decrease in the level of p21 protein (p21) [fold] | level of p53 mRNA (p53 mRNA) | decrease of mean tumor size from the initial value at day 0 (H23 human tumor cells; PG490-88 0.75 mg/kg/day, day 14) [%] | decrease of tumor size relative to the day 14 vehicle control (H23 human tumor cells; PG490-88 alone 0.75 mg/kg/day, combination PG490-88 0.25 mg/kg/day plus taxol 10 mg/kg/day) [%] | inhibition of tumor growth (H23 human tumor cells; daily IP PG490-88) | TUNEL staining of tumor sections (H23 human tumor cells; day 3 tumors, compared to saline-treated animals) | tumor volume as % of the vehicle control (H23 human tumor cells; day 14, PG490-88 0.25 mg/kg/day, taxol 10 mg/kg/day, IP) [%] | increase in tumor volume from day 0 by day 14 ([1]; PG490-88 0.25 mg/kg i.p. 5 days per week for 2 weeks, Navelbine 10 mg/kg i.v. days 0 and 7) [%] | Day 0 Tumor Volume (mm^3) Mean ([1]; baseline at grouping, before treatment) [mm^3] | observable toxicity (change in body weight, altered activity or labored respiration) ([2]; PG490-88 0.75 mg/kg) | tolerability ([2]; triptolide dosage on molar comparison to PG490-88 70 μg/mouse/week)
CC(C)[C@]12O[C@H]1[C@@H]1O[C@]13[C@]1(O[C@H]1C[C@H]1C4=C(CC[C@@]13C)C(=O)OC4)[C@@H]2O [PG490, triptolide] | 6 | ≤ 16 | 3 | not affected |  |  |  |  |  |  |  |  | 
CC(C)[C@]12O[C@H]1[C@@H]1O[C@]13[C@]1(O[C@H]1C[C@H]1C4=C(CC[C@@]13C)C(=O)OC4)[C@@H]2OC(=O)CCC(=O)[O-].[Na+] [PG490-88, 14-succinyl triptolide sodium salt] |  |  |  |  | 61 | 97 | inhibited tumor growth in a dose-dependent manner | many TUNEL-positive cells | 21 | 238 | 109 | no observable toxicity | well tolerated
